Laboratory results: ChEMBL document CHEMBL4330071 (Eur J Med Chem, 2019)

Tests used:
[1] = molecular target: RAC-alpha serine/threonine-protein kinase (Homo sapiens) (UniProt P31749); experiment: Inhibition of human AKT1 assessed as residual activity at 10 uM using KGSGSGRPRTSSFAEG as substrate preincubated for 20 mins followed by [gamma-33P]-ATP addition and measured after 120 mins by Hotspot assay relative to control
[2] = molecular target: Aurora kinase A (Homo sapiens) (UniProt O14965); experiment: Inhibition of human Aurora A assessed as residual activity at 10 uM using [H-LRRASLG] as substrate preincubated for 20 mins followed by [gamma-33P]-ATP addition and measured after 120 mins by Hotspot assay relative to control
[3] = molecular target: CDK6/cyclin D1 (Homo sapiens) (UniProt P24385+Q00534); experiment: Inhibition of human CDK6/cyclin-D1 assessed as residual activity at 10 uM using RB protein as substrate preincubated for 20 mins followed by [gamma-33P]-ATP addition and measured after 120 mins by Hotspot assay relative to control; format: protein-complex assay
[4] = molecular target: T1, Macrophage colony-stimulating factor 1 receptor (Homo sapiens, UniProt P07333); experiment: Inhibition of human FMS assessed as residual activity at 10 uM using poly[Glu:Tyr] (4:1) as substrate preincubated for 20 mins followed by [gamma-33P]-ATP addition and measured after 120 mins by Hotspot assay relative to control
[5] = molecular target: Glycogen synthase kinase-3 beta (Homo sapiens) (UniProt P49841); experiment: Inhibition of human GSK3B assessed as residual activity at 10 uM using YRRAAVPPSPSLSRHSSPHQ(pS)EDEEE as substrate preincubated for 20 mins followed by [gamma-33P]-ATP addition and measured after 120 mins by Hotspot assay relative to control
[6] = molecular target: Mitogen-activated protein kinase 8 (Homo sapiens) (UniProt P45983); experiment: Inhibition of human JNK1 assessed as residual activity at 10 uM using ATF2 as substrate preincubated for 20 mins followed by [gamma-33P]-ATP addition and measured after 120 mins by Hotspot assay relative to control
[7] = molecular target: Tyrosine-protein kinase Lck (Homo sapiens, UniProt P06239); experiment: Inhibition of human LCK assessed as residual activity at 10 uM using poly[Glu:Tyr] (4:1) as substrate preincubated for 20 mins followed by [gamma-33P]-ATP addition and measured after 120 mins by Hotspot assay relative to control
[8] = molecular target: Mitogen-activated protein kinase kinase kinase 1 (Homo sapiens) (UniProt Q13233); experiment: Inhibition of human MEKK1 assessed as residual activity at 10 uM using MBP as substrate preincubated for 20 mins followed by [gamma-33P]-ATP addition and measured after 120 mins by Hotspot assay relative to control
[9] = molecular target: Tyrosine-protein kinase ABL1 (Homo sapiens, UniProt P00519, H396P); experiment: Binding affinity to human non-phosphorylated ABL1 H396P mutant (S229 to K512 residues) expressed in mammalian expression system after 60 mins by Kinomescan method
[10] = molecular target: Tyrosine-protein kinase ABL1 (Homo sapiens, UniProt P00519, T315I); experiment: Binding affinity to human phosphorylated ABL1 T315I mutant (S229 to K512 residues) expressed in mammalian expression system after 60 mins by Kinomescan method
[11] = molecular target: T2, Tyrosine-protein kinase ABL1 (Homo sapiens, UniProt P00519); experiment: Binding affinity to wild-type human non-phosphorylated ABL1 (S229 to K512 residues) expressed in mammalian expression system after 60 mins by Kinomescan method
[12] = molecular target: T2, Tyrosine-protein kinase ABL1; experiment: Binding affinity to wild-type human phosphorylated ABL1 (S229 to K512 residues) expressed in mammalian expression system after 60 mins by Kinomescan method
[13] = molecular target: T1, Macrophage colony-stimulating factor 1 receptor; experiment: Binding affinity to wild-type human partial length CSF1R (I564 to S939 residues) expressed in bacterial expression system after 60 mins by Kinomescan method
[14] = molecular target: Mast/stem cell growth factor receptor Kit (Homo sapiens, UniProt P10721); experiment: Binding affinity to wild-type human partial length autoinhibited KIT (Y545 to D952 residues) expressed in mammalian expression system after 60 mins by Kinomescan method
[15] = molecular target: T2, Tyrosine-protein kinase ABL1; experiment: Inhibition of human ABL1 using EAIYAAPFAKKK as substrate preincubated for 20 mins followed by [gamma-33P]-ATP addition and measured after 120 mins by Hotspot assay
CDK6/cyclin D1 = CDK6/cyclin D1 (Homo sapiens, UniProt Q00534); experiment: Inhibition of human CDK6/cyclin-D1 using RB protein as substrate preincubated for 20 mins followed by [gamma-33P]-ATP addition and measured after 120 mins by Hotspot assay; format: protein-complex assay
[16] = molecular target: Platelet-derived growth factor receptor alpha (Homo sapiens, UniProt P16234); experiment: Inhibition of human PDGFRalpha using poly[Glu:Tyr] (4:1) as substrate preincubated for 20 mins followed by [gamma-33P]-ATP addition and measured after 120 mins by Hotspot assay
[17] = molecular target: ALK tyrosine kinase receptor (Homo sapiens, UniProt Q9UM73); experiment: Inhibition of human ALK using poly[Glu:Tyr] (4:1) as substrate preincubated for 20 mins followed by [gamma-33P]-ATP addition and measured after 120 mins by Hotspot assay
[18] = molecular target: Cyclin-dependent kinase 4/cyclin D1 (Homo sapiens, UniProt P11802); experiment: Inhibition of human CDK4/cyclin-D1 using RB protein as substrate preincubated for 20 mins followed by [gamma-33P]-ATP addition and measured after 120 mins by Hotspot assay; format: protein-complex assay
HL-60 = experiment: Growth inhibition of human HL60 cells harboring WT FLT3 at 10 uM after 72 hrs by CellTiter-Glo assay relative to control; format: functional; conditions: HL-60, 72 h, read-out: GI
HuT78 = experiment: Growth inhibition of human HUT78 cells at 10 uM after 72 hrs by CellTiter-Glo assay relative to control; format: functional; conditions: HuT78, 72 h, read-out: GI
MV4-11 [19] = experiment: Cytotoxicity against human MV4-11 cells at 1 uM after 72 hrs by MTT assay; format: cell-based; conditions: mv4-11, 72 h
PBMC = experiment: Cytotoxicity against human PBMC at 1 uM after 72 hrs by MTT assay; format: cell-based
MV4-11 [20] = experiment: Induction of apoptosis in human MV4-11 cells assessed as early apoptotic cells at 0.05 uM after 24 hrs by Annexin V-FITC/propidium iodide staining based flow cytometric analysis (reference value: 3.39%); format: functional
MV4-11 [21] = experiment: Induction of apoptosis in human MV4-11 cells assessed as viable cells at 0.1 uM after 24 hrs by Annexin V-FITC/propidium iodide staining based flow cytometric analysis (reference value: 95.19%); format: functional; conditions: MV4-11, 24 h, read-out: Activity
MV4-11 [22] = experiment: Induction of apoptosis in human MV4-11 cells assessed as early apoptotic cells at 0.2 uM after 24 hrs by Annexin V-FITC/propidium iodide staining based flow cytometric analysis (reference value: 3.39%); format: functional
MV4-11 [23] = experiment: Induction of apoptosis in human MV4-11 cells assessed as early apoptotic cells at 1 uM after 24 hrs by Annexin V-FITC/propidium iodide staining based flow cytometric analysis (reference value: 3.39%); format: functional
MV4-11 [24] = experiment: Induction of apoptosis in human MV4-11 cells assessed as viable cells at 1 uM after 24 hrs by Annexin V-FITC/propidium iodide staining based flow cytometric analysis (reference value: 95.19%); format: functional; conditions: MV4-11, 24 h, read-out: Activity

Chain of Cyclin-dependent kinase 4/cyclin D1 (P11802 whole entry): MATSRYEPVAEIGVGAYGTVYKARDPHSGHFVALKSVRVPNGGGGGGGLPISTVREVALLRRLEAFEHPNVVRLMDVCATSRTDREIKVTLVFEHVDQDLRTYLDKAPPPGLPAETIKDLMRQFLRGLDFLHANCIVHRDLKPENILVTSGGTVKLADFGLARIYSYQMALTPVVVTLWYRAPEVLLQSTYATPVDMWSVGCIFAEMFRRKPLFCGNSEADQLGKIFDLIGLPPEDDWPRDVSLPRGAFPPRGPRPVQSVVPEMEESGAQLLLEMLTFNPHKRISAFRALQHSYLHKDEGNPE
Chain of Cyclin-dependent kinase 4/cyclin D1 (P24385 whole entry, further chain): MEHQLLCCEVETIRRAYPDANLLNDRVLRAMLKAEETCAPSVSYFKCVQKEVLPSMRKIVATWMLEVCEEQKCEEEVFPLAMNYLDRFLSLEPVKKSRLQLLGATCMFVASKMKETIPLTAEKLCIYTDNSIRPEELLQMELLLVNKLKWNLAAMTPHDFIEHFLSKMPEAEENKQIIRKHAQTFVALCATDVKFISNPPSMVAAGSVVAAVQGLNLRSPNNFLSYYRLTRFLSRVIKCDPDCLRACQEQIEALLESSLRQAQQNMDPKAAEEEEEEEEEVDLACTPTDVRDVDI
T1 sequence (P07333 whole entry): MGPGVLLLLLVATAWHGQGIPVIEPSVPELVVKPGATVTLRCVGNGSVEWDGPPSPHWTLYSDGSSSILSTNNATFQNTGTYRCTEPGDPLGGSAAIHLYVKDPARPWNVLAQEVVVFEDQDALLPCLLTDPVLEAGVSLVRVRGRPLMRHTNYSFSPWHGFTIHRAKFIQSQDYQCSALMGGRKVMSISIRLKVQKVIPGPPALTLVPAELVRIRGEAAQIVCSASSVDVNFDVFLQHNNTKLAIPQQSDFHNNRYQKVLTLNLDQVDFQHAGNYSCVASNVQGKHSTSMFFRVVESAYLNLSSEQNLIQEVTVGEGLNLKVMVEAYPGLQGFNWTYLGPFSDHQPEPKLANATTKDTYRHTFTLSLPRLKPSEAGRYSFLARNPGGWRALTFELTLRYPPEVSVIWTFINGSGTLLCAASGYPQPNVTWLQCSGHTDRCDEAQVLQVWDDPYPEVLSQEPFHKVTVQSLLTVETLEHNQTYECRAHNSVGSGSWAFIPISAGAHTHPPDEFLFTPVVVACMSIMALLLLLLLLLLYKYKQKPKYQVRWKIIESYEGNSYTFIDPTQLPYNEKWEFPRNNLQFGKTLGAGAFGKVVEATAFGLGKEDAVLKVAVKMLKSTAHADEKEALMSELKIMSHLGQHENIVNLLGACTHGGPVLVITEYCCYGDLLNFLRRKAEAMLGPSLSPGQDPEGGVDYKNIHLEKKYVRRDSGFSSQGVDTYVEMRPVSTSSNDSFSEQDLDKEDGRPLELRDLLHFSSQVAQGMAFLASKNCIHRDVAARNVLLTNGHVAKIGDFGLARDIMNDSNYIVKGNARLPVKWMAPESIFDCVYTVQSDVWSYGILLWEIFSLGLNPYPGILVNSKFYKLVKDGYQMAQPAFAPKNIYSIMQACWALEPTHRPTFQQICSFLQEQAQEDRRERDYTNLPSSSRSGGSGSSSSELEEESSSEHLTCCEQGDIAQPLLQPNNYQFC
Chain of Aurora kinase A (Homo sapiens) (O14965 whole entry): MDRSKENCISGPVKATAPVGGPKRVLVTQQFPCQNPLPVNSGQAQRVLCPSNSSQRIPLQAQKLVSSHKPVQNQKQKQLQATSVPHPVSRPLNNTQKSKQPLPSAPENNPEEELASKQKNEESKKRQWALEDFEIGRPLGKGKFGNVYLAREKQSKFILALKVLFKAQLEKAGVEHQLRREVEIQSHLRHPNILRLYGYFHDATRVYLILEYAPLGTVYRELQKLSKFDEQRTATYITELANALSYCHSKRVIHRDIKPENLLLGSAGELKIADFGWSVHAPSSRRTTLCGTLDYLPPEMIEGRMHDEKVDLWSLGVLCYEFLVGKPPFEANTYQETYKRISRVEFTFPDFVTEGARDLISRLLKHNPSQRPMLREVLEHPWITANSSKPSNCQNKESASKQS
Chain of CDK6/cyclin D1 (P24385 whole entry): as the sequence (P24385 whole entry, further chain) above
Chain of CDK6/cyclin D1 (Q00534 whole entry): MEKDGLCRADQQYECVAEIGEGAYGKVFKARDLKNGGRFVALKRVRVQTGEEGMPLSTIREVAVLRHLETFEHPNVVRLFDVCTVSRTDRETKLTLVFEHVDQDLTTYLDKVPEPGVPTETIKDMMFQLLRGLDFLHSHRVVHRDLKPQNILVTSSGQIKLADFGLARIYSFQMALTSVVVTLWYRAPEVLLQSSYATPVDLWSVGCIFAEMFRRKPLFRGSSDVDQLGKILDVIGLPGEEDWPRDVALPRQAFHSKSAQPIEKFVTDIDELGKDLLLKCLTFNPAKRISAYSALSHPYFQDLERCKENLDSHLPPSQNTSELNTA
Chain of Mitogen-activated protein kinase 8 (Homo sapiens) (P45983 whole entry): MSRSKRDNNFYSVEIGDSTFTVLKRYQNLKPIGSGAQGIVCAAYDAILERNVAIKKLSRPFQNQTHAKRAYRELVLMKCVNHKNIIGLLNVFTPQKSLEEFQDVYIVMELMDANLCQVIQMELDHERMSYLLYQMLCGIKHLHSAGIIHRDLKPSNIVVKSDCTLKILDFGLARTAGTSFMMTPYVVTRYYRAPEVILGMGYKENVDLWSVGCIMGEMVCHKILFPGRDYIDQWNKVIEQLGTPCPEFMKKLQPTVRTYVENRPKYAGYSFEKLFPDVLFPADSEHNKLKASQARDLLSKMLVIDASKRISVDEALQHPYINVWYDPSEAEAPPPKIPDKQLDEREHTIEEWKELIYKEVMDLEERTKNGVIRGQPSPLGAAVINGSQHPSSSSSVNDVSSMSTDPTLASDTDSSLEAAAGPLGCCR
Chain of Mast/stem cell growth factor receptor Kit (P10721 whole entry, the tested form may be a part): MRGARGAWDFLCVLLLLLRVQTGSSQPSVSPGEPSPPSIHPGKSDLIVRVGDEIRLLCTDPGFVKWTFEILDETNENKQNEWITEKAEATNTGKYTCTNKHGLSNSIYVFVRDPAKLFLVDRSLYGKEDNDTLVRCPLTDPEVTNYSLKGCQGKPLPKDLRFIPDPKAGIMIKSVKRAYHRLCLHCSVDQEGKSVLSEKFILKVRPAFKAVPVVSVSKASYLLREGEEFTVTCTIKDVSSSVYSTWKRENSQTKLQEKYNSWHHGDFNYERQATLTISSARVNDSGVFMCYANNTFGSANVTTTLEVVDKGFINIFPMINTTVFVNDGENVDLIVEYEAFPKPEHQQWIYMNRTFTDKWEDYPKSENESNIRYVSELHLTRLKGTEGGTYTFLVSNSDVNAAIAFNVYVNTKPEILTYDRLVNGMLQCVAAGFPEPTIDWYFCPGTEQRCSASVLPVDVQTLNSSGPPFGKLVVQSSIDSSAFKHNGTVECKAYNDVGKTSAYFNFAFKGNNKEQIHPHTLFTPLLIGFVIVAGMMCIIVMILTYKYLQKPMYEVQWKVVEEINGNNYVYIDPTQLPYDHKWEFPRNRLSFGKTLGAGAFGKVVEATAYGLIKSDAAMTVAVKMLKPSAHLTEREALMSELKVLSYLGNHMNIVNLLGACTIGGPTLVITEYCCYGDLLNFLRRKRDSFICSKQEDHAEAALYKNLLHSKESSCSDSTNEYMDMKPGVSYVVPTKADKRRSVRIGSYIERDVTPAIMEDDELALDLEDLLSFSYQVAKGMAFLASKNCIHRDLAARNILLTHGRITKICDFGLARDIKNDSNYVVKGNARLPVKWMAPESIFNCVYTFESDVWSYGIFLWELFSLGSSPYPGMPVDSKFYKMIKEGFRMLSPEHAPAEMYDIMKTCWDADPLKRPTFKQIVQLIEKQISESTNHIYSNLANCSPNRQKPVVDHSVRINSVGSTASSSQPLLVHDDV
Chain of Glycogen synthase kinase-3 beta (Homo sapiens) (P49841 whole entry, looked up): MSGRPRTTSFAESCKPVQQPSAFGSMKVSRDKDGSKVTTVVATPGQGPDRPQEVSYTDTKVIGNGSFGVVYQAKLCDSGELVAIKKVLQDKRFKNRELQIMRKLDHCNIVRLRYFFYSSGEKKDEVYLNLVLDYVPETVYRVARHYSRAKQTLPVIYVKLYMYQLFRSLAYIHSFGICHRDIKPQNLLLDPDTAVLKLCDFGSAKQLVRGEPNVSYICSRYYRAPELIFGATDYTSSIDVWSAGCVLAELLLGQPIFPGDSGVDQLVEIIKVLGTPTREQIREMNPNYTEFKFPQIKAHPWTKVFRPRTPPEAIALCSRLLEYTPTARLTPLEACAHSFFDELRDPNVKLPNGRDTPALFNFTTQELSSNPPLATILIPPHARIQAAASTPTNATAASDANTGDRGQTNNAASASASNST
Chain of Tyrosine-protein kinase Lck (P06239 2-509 limits assumed): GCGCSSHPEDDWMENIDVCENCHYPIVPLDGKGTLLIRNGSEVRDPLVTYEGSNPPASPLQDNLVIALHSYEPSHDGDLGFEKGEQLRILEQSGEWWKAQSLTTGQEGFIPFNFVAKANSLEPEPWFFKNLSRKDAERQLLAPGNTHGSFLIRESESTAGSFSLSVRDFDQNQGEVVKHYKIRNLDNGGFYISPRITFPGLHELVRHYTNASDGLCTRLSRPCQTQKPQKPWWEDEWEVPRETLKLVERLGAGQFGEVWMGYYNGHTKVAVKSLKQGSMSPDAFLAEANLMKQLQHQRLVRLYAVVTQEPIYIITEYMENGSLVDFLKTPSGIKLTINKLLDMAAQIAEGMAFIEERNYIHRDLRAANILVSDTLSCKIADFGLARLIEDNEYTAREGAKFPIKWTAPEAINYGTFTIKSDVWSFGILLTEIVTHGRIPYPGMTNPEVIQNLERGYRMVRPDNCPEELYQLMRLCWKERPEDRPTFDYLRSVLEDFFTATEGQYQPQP

Compound `CN1CCC(Nc2ccc(C(=O)Nc3cc(-c4cc(C#N)cs4)n[nH]3)cc2)CC1` has an Activity [1] of 90.7%, an Activity [2] of 58.4% and an Activity [3] of 20.1%. It also gave an Activity [4] of 4.66%, an Activity [5] of 72.8% and an Activity [6] of 89.6%. For the same compound, the Activity [7] was 8.39%, the Activity [8] was 66.2% and the Kd [9] was 280 nM. It also gave a Kd [10] of 500 nM, a Kd [11] of 370 nM and a Kd [12] of 520 nM. It also gave a Kd [13] of 47 nM, a Kd [14] of 72 nM and an IC50 ([15]; read-out: IC50) of 931 nM. It also gave an IC50 ([15]; read-out: pIC50 (converted)) of 1000 nM, an IC50 (CDK6/cyclin D1) of 3060 nM and an IC50 [16] of 3640 nM. For the same compound, the IC50 [17] was 5140 nM, the IC50 ([18]; read-out: IC50) was > 10000 nM and the IC50 ([18]; read-out: pIC50 (converted)) was 10000 nM. For the same compound, the inhibition of growth at 10 µM (HL-60) was 10.2%, the inhibition of growth at 10 µM (HuT78) was 3.9% and the Activity (MV4-11 [19]) was “Non-Toxic”. The Activity (PBMC) was “Non-Toxic”, the Activity (MV4-11 [20]) was 21.04% and the viability at 0.1 µM (MV4-11 [21]) was 56.8%. The Activity (MV4-11 [22]) was 25.33%, the Activity (MV4-11 [23]) was 31.43% and the viability at 1 µM (MV4-11 [24]) was 34.5%.
